Laboratory results taken from patent US5536723A, “S-nitroso derivatives of hydrazinoacetic acids, 1-[(acylthio and (mercapto)-1-oxoalkyl]-1,2,34-Tetrahydroquinoline-2-carboxylic acids and alanyl prolines and isoquinolines” (Brigham & Women's Hospital, priority 1994, dated 1996).

Columns and labels:
[1] = system: bovine femoral artery, contraction to angiotensin I; experiment: contraction of the bovine femoral artery to angiotensin I
Experimental: The data are expressed as a percentage of the maximal response to norepinephrine (10^-6 M) and are shown as mean ±SEM in each group (n=7).
Blood Vessel Preparation. Bovine coronary or femoral arteries were obtained from an abattoir immediately after sacrifice of two- to four-week-old calves. Immediately after removal, the vessel was placed in ice-cold physiologic salt solution (PSS) containing 118.3 mM NaCl, 4.7 mM KCl, 2.5 mM CaCl2, 1.2 mM MgSO4, 1.2 mM KH2 PO4, 25.0 mM NaHCO3, 11.1 mM glucose, and 0.026 mM calcium disodium (ethylenedinitrilo)-tetraacetate. The vessels were then cleaned of adventitial tissue and cut into rings of approximately 5 mm lengths. When called for by the protocol, endothelium was removed from a ring by gently rubbing the luminal surface with a watchmaker's forceps. Vascular rings with intact endothelium were then suspended in organ chambers containing 25 ml of PSS at 37° aerated with 95% O2 -5% CO2. The rings were connected to force transducers (Grass FT03C, Quincy, Mass.) and changes in isometric force recorded continuously (Grass Polygraph Model 79B) over a period of 90 minutes. The optimal length-tension relationship was determined for each ring by observing the response to 10^-6 M norepinephrine after increments in tension of 0.5 gm. The functional integrity of the endothelium was assessed by contracting the vessel with 10^-6 M norepinephrine and then observing the response to 3×10^-7 M acetylcholine chloride.

ACE = biological target: T1, ACE (Rattus norvegicus, UniProt P47820); experiment: ACE inhibition, rat lung source of ACE; type: biochemical; details: 10^-10 to 10^-8
T1 sequence (P47820 36-1313): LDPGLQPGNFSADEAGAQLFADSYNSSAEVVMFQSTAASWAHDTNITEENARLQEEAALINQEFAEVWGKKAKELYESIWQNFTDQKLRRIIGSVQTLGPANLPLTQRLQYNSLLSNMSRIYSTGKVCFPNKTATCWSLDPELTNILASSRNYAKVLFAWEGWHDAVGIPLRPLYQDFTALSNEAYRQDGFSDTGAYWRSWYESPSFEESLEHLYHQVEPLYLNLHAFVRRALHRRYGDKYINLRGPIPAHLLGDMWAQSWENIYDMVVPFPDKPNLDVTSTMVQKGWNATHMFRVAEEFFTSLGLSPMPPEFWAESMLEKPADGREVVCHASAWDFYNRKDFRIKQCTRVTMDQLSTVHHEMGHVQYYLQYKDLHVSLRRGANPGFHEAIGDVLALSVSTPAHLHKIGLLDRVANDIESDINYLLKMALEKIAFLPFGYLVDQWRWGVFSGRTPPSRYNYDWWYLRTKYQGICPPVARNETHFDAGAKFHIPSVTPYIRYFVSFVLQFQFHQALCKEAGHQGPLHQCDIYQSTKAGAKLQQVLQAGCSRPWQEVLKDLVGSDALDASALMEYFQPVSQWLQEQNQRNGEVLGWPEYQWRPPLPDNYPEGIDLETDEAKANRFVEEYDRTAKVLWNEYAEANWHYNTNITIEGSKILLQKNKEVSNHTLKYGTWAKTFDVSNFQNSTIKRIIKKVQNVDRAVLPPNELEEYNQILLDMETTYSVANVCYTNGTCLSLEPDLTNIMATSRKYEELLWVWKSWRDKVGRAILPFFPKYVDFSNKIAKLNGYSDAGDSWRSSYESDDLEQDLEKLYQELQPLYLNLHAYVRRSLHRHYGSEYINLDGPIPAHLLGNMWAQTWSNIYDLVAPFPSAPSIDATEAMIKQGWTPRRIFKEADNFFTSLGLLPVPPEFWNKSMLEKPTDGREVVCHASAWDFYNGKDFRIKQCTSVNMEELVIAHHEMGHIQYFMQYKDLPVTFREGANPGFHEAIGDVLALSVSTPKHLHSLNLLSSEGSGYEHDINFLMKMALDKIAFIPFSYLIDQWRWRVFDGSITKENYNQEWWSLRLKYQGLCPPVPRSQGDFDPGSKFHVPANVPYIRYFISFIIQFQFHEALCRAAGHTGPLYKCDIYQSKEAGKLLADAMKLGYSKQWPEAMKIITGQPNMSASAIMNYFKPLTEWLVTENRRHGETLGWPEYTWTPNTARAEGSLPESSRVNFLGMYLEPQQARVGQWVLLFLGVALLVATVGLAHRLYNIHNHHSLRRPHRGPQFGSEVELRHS
Experimental: Under the conditions of this assay (0.1M potassium phosphate, pH 8.3, 0.3M NaCl at 37°), ACE preparations generated 6.32 nmoles of product/mg protein/min.

**Q.** How did the “inhibition of contractions to angiotensin I, S-nitrosocaptopril versus captopril (in words)” value [1] turn out when `C[C@H](CSN=O)C(=O)N1CCC[C@H]1C(=O)O` [S-nitrosocaptopril] was run?
**A.** equally inhibited contractions to angiotensin I

**Q.** And the “shift in the response to angiotensin I (rounded, discussion)” value [1]?
**A.** 50 fold

**Q.** And the “log shift at the ED50 in the response to angiotensin I” value ([1]; 10^-6 M, n=6, p<0.001, FIG. 9)?
**A.** 1.74±0.25 log

**Q.** And the “shift at the ED50 in the response to angiotensin I” value ([1]; 10^-6 M, n=6, p<0.001, FIG. 9)?
**A.** 56 fold

**Q.** And the “ACE inhibition (in words, FIG. 6)” value (ACE)?
**A.** almost complete inhibition of ACE
